Tests used:
[1] = test system: hair growth in C57BL/6 mice skin tissue; assay: Induction of hair growth phase in depilated C57BL/6 mice (topical, 30 days); type: in vivo; conditions: applied once a day for 30 days
Procedure: 6-week-old C57BL/6 female mice with white or pink back skin were used as experimental animals and the experiment was conducted according to guidelines for the management and use of laboratory animals approved by the Animal Research Ethics Committee of the Korea Institute of Science and Technology (approval number: […]-2018-081). […] The back hairs of the mice were depilated using an electric shaver and a test substance was applied to the depilated area once a day for 30 days. […] 30 days after treatment with the sample, the hairs were randomly collected, the thickness and length of the hairs were measured, and the results are shown in FIG. 3 and Table 1. On the last day of application of the test substance, the mice were sacrificed to obtain skin tissues, and then tissues were fixed with paraffin and then prepared into tissue slices. These were stained with hematoxylin and eosin (H&E) and observed under a microscope (100×), and the results are shown in FIG. 4.

[2] = test system: lipid peroxide production in liver homogenate; assay: Inhibition of lipid peroxide formation in rat liver homogenate (TBA method); type: biochemical, Sprague-Dawley rats; conditions: positive controls, FeSO4/ascorbic acid, 37° C., 30 minutes, mean ± standard error, read-out: Lipid peroxide production inhibitory activity IC50
Procedure: Lipid peroxide is a substance produced by peroxidation of lipids through various oxidation reactions. Reactive oxygen species, free radicals and the like oxidize phospholipids of cell membranes containing great amounts of unsaturated fatty acids, producing lipid peroxides in the cell membranes. […] The animals used in the experiment were male Sprague-Dawley rats, and only water was supplied for 24 hours before the experiment.

[3] = A. ageratoides 1%, minoxidil 3%

IC50 [2] [µM]	Structure (SMILES)	hair thickness ([1]; 1% Aster ageratoides extract, 3% minoxidil) [μm]	Hair length [1, 3]	Hair width [1, 3] [µm]	Hair length ([1]; A. ageratoides 1%, minoxidil 3%, listed as positive control) [mm]
	Nc1cc(N2CCCCC2)nc(N)[n+]1[O-] [Minoxidil, minoxidil]	53.19±4.04	6-9 mm	53.2 ± 4.04	6 to 9
> 100	Cc1c(C)c2c(c(C)c1O)CCC(C)(C(=O)O)O2 (centres unmarked) [Trolox]				
